Literature values in patent publication US6794347B2, “Process of making gel detergent compositions” (Unilever Home & Personal Care USA a division of Conopco, …, priority 2002, dated 2004).
Like-named read-outs stand apart in the source and are kept apart here.

For `CCCCCCCCCCCCCCCC(=O)O` [Fatty acid chain length 16], the “Measured pKa value” (Cited from Langmuir, Vol 16, pp 172-177, 2000) is listed as 8.6˜8.8 and the “Measured pKa value” (Cited from Proc. R. Soc. London, A133, 140, 1931) is listed as 8.5.
